According to US20240262812A1, “N-SUBSTITUTED PHENYLSULFONAMIDE COMPOUND AND USE THEREOF” (Shanghai Leado Pharmatech Co., Ltd., priority 2021, published 2024):

Experiments:
[1] = target: T1, mTRPA1 (Mus musculus, UniProt Q8BLA8); assay: IonWorks Barracuda (IWB) automated patch clamp, TRPA1 inhibitory activity; type: cell-based; settings: HEK293 cells stably expressing mTRPA1, current induced by AITC, amplitude at +100 mV; read-out: IC50 (inhibition activity on TRPA1)
T1 construct: expressed in transfected cells
T1 sequence (Q8BLA8 whole entry): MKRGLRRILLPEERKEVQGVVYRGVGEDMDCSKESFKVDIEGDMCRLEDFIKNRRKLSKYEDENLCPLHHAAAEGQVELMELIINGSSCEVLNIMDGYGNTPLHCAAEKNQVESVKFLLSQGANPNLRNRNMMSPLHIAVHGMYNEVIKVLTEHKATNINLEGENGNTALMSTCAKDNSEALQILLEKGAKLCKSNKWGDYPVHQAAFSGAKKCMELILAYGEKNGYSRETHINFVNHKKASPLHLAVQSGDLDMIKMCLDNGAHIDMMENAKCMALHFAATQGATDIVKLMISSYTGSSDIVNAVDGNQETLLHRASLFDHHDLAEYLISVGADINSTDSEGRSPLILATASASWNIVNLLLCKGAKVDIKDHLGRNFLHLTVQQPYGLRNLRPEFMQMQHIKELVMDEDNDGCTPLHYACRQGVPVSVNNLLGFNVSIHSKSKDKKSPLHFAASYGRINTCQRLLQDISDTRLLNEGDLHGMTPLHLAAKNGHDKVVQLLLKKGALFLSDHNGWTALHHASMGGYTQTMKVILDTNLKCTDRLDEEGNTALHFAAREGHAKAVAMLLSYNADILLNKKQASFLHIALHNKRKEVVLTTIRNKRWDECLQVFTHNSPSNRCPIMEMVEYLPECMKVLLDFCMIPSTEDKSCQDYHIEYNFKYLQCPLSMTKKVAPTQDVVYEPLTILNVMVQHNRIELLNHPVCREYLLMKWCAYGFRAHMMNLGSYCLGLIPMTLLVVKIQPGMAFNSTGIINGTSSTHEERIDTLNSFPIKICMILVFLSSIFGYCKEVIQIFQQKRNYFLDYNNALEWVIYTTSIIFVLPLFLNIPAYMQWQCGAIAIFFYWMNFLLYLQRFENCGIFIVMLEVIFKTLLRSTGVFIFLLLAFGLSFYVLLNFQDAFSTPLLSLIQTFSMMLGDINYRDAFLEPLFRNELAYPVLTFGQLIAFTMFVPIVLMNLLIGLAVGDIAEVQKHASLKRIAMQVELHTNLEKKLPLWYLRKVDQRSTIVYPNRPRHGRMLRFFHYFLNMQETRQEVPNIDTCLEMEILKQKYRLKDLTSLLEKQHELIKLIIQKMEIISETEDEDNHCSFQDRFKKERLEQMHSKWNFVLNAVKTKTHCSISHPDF
Description: In this example, the inhibitory activity of the compounds prepared in some examples of the present invention on transient receptor potential channel protein ankyrin 1 (TRPA1) was tested. Among them, compound of formula A (WO2010075353) was used as the positive control compound: […]
Test method using IonWorks Barracuda (IWB) automated patch clamp detection: HEK293 cells stably expressing mTRPA1 were placed in the T175 culture flask with DMEM medium containing 15 µg/mL Blasticidin S HCl, 200 µg/mL Hygromycin B and 10% FBS, and cultured in 37° C., 5% CO2 incubator. When the cell density reached about 80%, the culture medium was removed, washed once with phosphate buffered saline (PBS) without calcium and magnesium. 3 mL of Trypsin was added to digest for 2 min, 7 mL of culture solution was added to terminate the digestion. The cells were collected to 15 mL centrifuge tube and centrifuged at 800 rpm for 3 min. After the supernatant was removed, the cells were added to appropriate volume of extracellular fluid for re-suspending, and the cell density was controlled at 2-3×10^6/mL for use in IWB experiment. Extracellular fluid formulation (in mM): 140 NaCl, 5 KCl, 1 MgCl2, 10 HEPES, 0.5 EGTA, 10 Glucose (pH 7.4); intracellular fluid formulation (in mM): 140 CsCl, 10 HEPES, 5 EGTA, 0.1 CaCl2, 1 MgCl2 (pH 7.2). 28 mg/mL of amphotericin B was freshly prepared with DMSO on the day of experiment, and then final concentration of 0.1 mg/mL was prepared with intracellular fluid.
Population patch clamp (PPC) plate was used in IWB experiment. The entire detection process was automatically carried out by the instrument, that is, extracellular fluid was added into 384 wells of PPC plate, and after intracellular fluid was added under PPC plate (in plenum), 6 µL of cell fluid was added for sealing test, and finally the intracellular fluid in plenum was replaced with intracellular fluid containing amphotericin B to establish a whole-cell recording mode after perforating sealed cells. The sampling frequency for recording TPRA1 current was 10 kHz, the cells were clamped at 0 mV, the voltage stimulation command (channel protocol) was a ramp voltage from −100 mV to +100 mV for 300 ms. This voltage stimulation was applied every 10 s, mTRPA1 current was induced by 300 µM AITC.
Data recording and current amplitude measurement export were carried out by IWB software (version 2.5.3, Molecular Devices Corporation, Union City, CA). No statistics was recorded for holes with sealing impedance lower than 20 MΩ. The original current data was corrected by software for leak subtraction. TRPA1 current amplitude was measured at +100 mV. […] If IC50 value of HC030031 exceeded 3 times of the average IC50 value previously obtained on each plate, it would be re-tested. The dose-effect curve of compounds and IC50 were fitted and calculated by GraphPad Prism 5.02 (GraphPad Software, San Diego, CA).
Some compounds of the present invention were subjected to IC50 inhibition activity test using the IonWorks Barracuda (IWB) automated patch clamp detection method.

[2] = target: T2, chemokine receptor CCR9 (Homo sapiens, UniProt P51686); assay: CCR9 antagonistic activity, calcium flow (Fluo-4, FlexStation), CCL25 agonist; type: cell-based; settings: antagonistic mode, CCL25 150 nM; for inhibition at 100 µM: read-out: Inhibition rate (%) (100 μM)
T2 construct: expressed in transfected cells
T2 sequence (P51686 1-369): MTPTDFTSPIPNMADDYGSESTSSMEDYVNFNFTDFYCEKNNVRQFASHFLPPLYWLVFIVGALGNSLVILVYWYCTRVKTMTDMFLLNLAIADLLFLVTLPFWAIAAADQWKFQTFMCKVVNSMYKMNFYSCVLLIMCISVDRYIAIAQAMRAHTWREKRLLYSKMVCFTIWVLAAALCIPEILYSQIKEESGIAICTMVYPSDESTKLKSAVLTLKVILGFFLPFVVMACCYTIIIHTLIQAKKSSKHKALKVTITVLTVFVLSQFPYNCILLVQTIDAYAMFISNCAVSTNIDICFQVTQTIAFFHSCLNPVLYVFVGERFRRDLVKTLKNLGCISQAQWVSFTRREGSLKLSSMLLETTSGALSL
Source text: 2.1 Main reagents: DMEM culture medium (GIBCO); dimethyl sulfoxide (Sigma); FLUO-4, AM (Invitrogen) 2.2 Main instrument: Flexstation-3 (Molecular Devices) The test concentration gradient of the compound and replicates were set according to the requirement of testing ICSO. All test substances with 8 concentrations were set, with 3 replicates for each concentration. By establishing a cell line that cotransformed the receptor and G16, the receptor being activated can induce the activation of Gα16 protein, thereby activating phospholipase C (PLC) to produce IP3 and DAG. IP3 can bind to the IP3 receptor on the intracellular endoplasmic reticulum and mitochondria, leading to the release of intracellular calcium. Therefore, measuring changes in intracellular calcium can serve as a method for detecting the activation status of target receptor. Fluo-4/AM is a calcium fluorescent probe indicator used to measure calcium ion, as a non-polar lipophilic compound, under the action of cell lipase after entering cells, the AM group dissociates and releases Fluo-4; since Fluo-4 is a polar molecule, it is not easy to pass through lipid bilayers, allowing it to remain in the cell for a long time. Ultimately, the level of G protein activation can be reflected by measuring the excited fluorescence intensity. […] Cells stably expressing the target receptor/Ga16 were planted on a 96 well plate and cultured overnight. 2. The culture solution was removed from the well planted cells, then 40 μL/well of freshly prepared dye was added. The mixture was incubated at a constant temperature in a 37° C. incubator for 40 minutes. 3. The drug to be tested was diluted with calcium buffer and mixed well. 4. The dye was absorbed and discarded. After washed once with freshly prepared calcium buffer, 50 μL of calcium buffer that dissolved the drug to be tested was added for replacement. 5. The FlexStation II instrument was used for detection. Starting from the 15th second, […] dissolved with known agonist was automatically added by the instrument, and finally the fluorescence value at 525 nm was readed. The following formula was used to calculate the cell response rate (% Response) for each sample under each concentration. […] IC50 value was calculated using GraphPad Prism.

## CNCc1ccc(-c2ccco2)c(NS(=O)(=O)c2ccc(F)cc2)c1 [IA-1, 4-Fluoro-N-(2-(furan-2-yl)-5-((methylamino)methyl)phenyl)benzenesulfonamide]
[1]
  IC50: 1 to 5 µM
[2]
  inhibition at 100 µM: 14%
  IC50: > 100 µM

## CNCc1ccc(-c2ccco2)c(NS(=O)(=O)c2ccccc2OC)c1 [IA-5, 2-Methoxy-N-(2-(furan-2-yl)-5-((methylamino)methyl)phenyl)benzenesulfonamide]
[1]
  IC50: 1 to 5 µM
[2]
  inhibition at 100 µM: 0%
  IC50: > 100 µM

## CNCc1ccc(-c2ccco2)c(NS(=O)(=O)c2ccc(F)cc2F)c1 [IA-11, 2,4-Difluoro-N-(2-(furan-2-yl)-5-((methylamino)methyl)phenyl)benzenesulfonamide]
[1]
  IC50: 1 to 5 µM
[2]
  inhibition at 100 µM: 5%
  IC50: > 100 µM

## CNCc1ccc(-c2ccco2)c(NS(=O)(=O)c2ccc3c(c2)CCO3)c1 [IA-15, N-(2-(furan-2-yl)-5-((methylamino)methyl)phenyl)-2,3-dihydrobenzofuran-5-sulfonamide]
[1]
  IC50: 1 to 5 µM
[2]
  inhibition at 100 µM: 0%
  IC50: > 100 µM

## CNCc1ccc(-c2ccco2)c(NS(=O)(=O)c2ccsc2)c1 [IA-21, N-(2-(furan-2-yl)-5-((methylamino)methyl)phenyl)thiophene-3-sulfonamide]
[1]
  IC50: 1 to 5 µM
[2]
  inhibition at 100 µM: 25%
  IC50: > 100 µM

## O=S(=O)(Nc1ccc(CNC2CC2)cc1-c1ccco1)c1ccsc1 [IA-33, N-(4-((cyclopropylamino)methyl)-2-(furan-2-yl)phenyl)thiophene-3-sulfonamide]
[1]
  IC50: 1 to 5 µM
[2]
  inhibition at 100 µM: 10%
  IC50: > 100 µM

## CNCc1ccc(-c2ccc(C)o2)c(NS(=O)(=O)c2ccccc2)c1 [IA-35, N-(5-((methylamino)methyl)-2-(5-methylfuran-2-yl)phenyl)benzenesulfonamide]
[1]
  IC50: 1 to 5 µM
[2]
  inhibition at 100 µM: 35%
  IC50: > 100 µM

## CNCc1ccc(-c2ccoc2)c(NS(=O)(=O)c2ccsc2)c1 [IA-43, N-(2-(furan-3-yl)-5-((methylamino)methyl)phenyl)thiophene-3-sulfonamide]
[1]
  IC50: 1 to 5 µM
[2]
  inhibition at 100 µM: 22%
  IC50: > 100 µM

## CNCc1ccc(-c2ccoc2)c(NS(=O)(=O)c2cccs2)c1 [IA-44, N-(2-(furan-3-yl)-5-((methylamino)methyl)phenyl)thiophene-2-sulfonamide]
[1]
  IC50: 1 to 5 µM
[2]
  inhibition at 100 µM: 12%
  IC50: > 100 µM

## CNCc1ccc(-c2cccs2)c(NS(=O)(=O)c2ccc(F)cc2)c1 [IA-45, 4-Fluoro-N-(5-((methylamino)methyl)-2-(thiophene-2-yl)phenyl)benzenesulfonamide]
[1]
  IC50: 1 to 5 µM
[2]
  inhibition at 100 µM: 30%
  IC50: > 100 µM

## CNCc1ccc(-c2ccsc2)c(NS(=O)(=O)c2ccccc2)c1 [IA-49, N-(2-(thiophene-3-yl)-5-((methylamino)methyl)phenyl)benzenesulfonamide]
[1]
  IC50: 1 to 5 µM
[2]
  inhibition at 100 µM: 19%
  IC50: > 100 µM

## CNCc1ccc(N(C)S(=O)(=O)c2ccsc2)c(-c2ccco2)c1 [IB, N-(2-(furan-2-yl)-4-((methylamino)methyl)phenyl)-N-methylthiophene-3-sulfonamide]
[1]
  IC50: < 1 µM
[2]
  inhibition at 100 µM: 10%
  IC50: > 100 µM

## NCc1ccc(-c2ccco2)c(NS(=O)(=O)c2ccccc2)c1 [ID-1, N-(5-(aminomethyl)-2-(furan-2-yl)phenyl)benzenesulfonamide]
[1]
  IC50: < 1 µM
[2]
  inhibition at 100 µM: 15%
  IC50: > 100 µM

## NCc1ccc(-c2ccco2)c(NS(=O)(=O)c2ccsc2)c1 [ID-3, N-(5-(aminomethyl)-2-(furan-2-yl)phenyl)thiophene-3-sulfonamide]
[1]
  IC50: < 1 µM
[2]
  inhibition at 100 µM: 13%
  IC50: > 100 µM

## NCc1ccc(NS(=O)(=O)c2ccsc2)c(-c2cc[nH]n2)c1 [ID-7, N-(4-(aminomethyl)-2-(1H-pyrazole-3-yl)phenyl)thiophene-3-sulfonamide]
[1]
  IC50: 1 to 5 µM
[2]
  inhibition at 100 µM: 11%
  IC50: > 100 µM
